Among the data in US20130156845A1, “LIPID FORMULATED SINGLE STRANDED RNA” (ALNYLAM PHARMACEUTICALS, INC., priority 2010, published 2013) are T1/2 full length, IC50 and EC50 values, retold here.

Broadly, the IC50 is the point on the concentration scale where inhibition reaches its midpoint. In general, EC50 refers to the concentration at which the effect is half-maximal.

A short description of data set [1]: Phosphate stability in mouse serum (Example 68).
Experimental: Single-stranded oligomeric compounds were tested for stability in mouse serum.
A further data set deals with PTEN. The data set is described as follows: PTEN mRNA reduction in HeLa cells, dose response (Example 72). In kind it is cell-based, human. To be noted: percent inhibition of PTEN mRNA, 0.167-50 nM. As to the method: In accordance with the present disclosure, oligomeric compounds were synthesized and tested for their ability to reduce PTEN expression over a range of doses. Human HeLa cells were treated with the following oligomeric compounds. A dose comparison was evaluated with dose concentrations of 0.167, 0.5, 1.5, 5, 15 and 50 nM using methods described herein. Expression levels of PTEN were determined using real-time PCR and normalized to RIBOGREEN™ using methods described herein. The percent inhibition of PTEN mRNA was determined and the resulting dose-response curves were used to determine the IC50. The IC50s are listed below.

A further data set has as its system human PTEN. The experiment in a line: PTEN expression in HeLa cells, ssRNAs vs siRNAs (Example 62). In kind it is cell-based. Here is the method:
A series of 5′ and 2′ bis-substituted modified oligomeric compounds were prepared as single strand RNAs (ssRNAs). The antisense (AS) strands listed below were designed to target human PTEN, and each was also assayed as part of a duplex with the same sense strand (ISIS 341401, shown below) for their ability to reduce PTEN expression levels. HeLa cells were treated with the single stranded or double stranded oligomeric compounds created with the antisense compounds shown below using methods described herein. The IC50's were calculated using the linear regression equation generated by plotting the normalized mRNA levels to the log of the concentrations used.

Where [2] appears, read: full compound with intact phosphorous moiety, first table.
Setting [3] is: antisense strand duplexed with sense strand ISIS 341401, PTEN mRNA, read-out: EC50 (nM) siRNA.

Like-named read-outs stand apart in the source and are kept apart here. Strand notation (5' to 3'): a small letter for the sugar, then the base; units joined by * are phosphorothioate-linked, units joined directly phosphodiester-linked; [ ] holds rarer units or linkages, { } end groups; capitals alone tell only the bases. [FEt-N] = nucleoside with 2'-OCH2CH2F (FEt) sugar (N: the base); [tcDNA-N] = tricyclo-DNA nucleoside (N: the base); [FEt] = thymidine with 2'-OCH2CH2F (FEt) sugar; e = 2'-O-(2-methoxyethyl) (MOE); m = 2'-O-methyl; r = 2'-OH (RNA); {P} = phosphate; f = 2'-fluoro

As to “5′-Po-ThUfoGfoUfoCfoUfoCfoUfoGfoGfoUfoCfoCfoUfsUfsAfsCfsUfsUfsAesAe (antisense TUGUCUCUGGUCCUUACUUAA; 5'-phosphate, 2'-F, MOE modifications, chemistry not fully specified) [ISIS 440141]”, in data set [1] (four compounds tested separately, second table), the T1/2 full length turned out to be 0.3 h.
Consider “5′-Po-TjUfoGfoUfoCfoUfoCfoUfoGfoGfoUfoCfoCfoUfsUfsAfsCfsUfsUfsAesAe (antisense {P}-[tcDNA-T]fUfGfUfCfUfCfUfGfGfUfCfCfU*fU*fA*fC*fU*fU*eA*eA) [ISIS 418130]”, for which the T1/2 full length in data set [1] (setting [2]) stood at 5.3 h.
“5′-Po-UiUfoGfoUfoCfoUfoCfoUfoGfoGfoUfoCfoCfoUfsUfsAfsCfsUfsUfsAesAe (antisense UUGUCUCUGGUCCUUACUUAA; 5'-phosphate, N-methoxyamino BNA, 2'-F, MOE modifications, chemistry not fully specified) [ISIS 418129]”: in data set [1] (setting [2]), the T1/2 full length is 5.4 h.
As to “5′-Ps-UdUfoGfoUfoCfoUfoCfoUfoGfoGfoUfoCfoCfoUfsUfsAfsCfsUfsUf (antisense UUGUCUCUGGUCCUUACUU; 5'-thiophosphate, 2'-F modifications, chemistry not fully specified) [ISIS 430601]”, the T1/2 full length in data set [1] (setting [2]) was 3.7 h.
For the substance “P-TUfGfUfCfUfCfUfGfGfUfCfCfUfUfAfCfUfUfAeAe (antisense TUGUCUCUGGUCCUUACUUAA; 5'-phosphate, chemical modifications, chemistry not fully specified) [ISIS 418131, modified ssRNA targeting PTEN]”, the IC50 in the data set on PTEN is 3.4 nM.
Still for that read-out and setting: in the case of “P-TdUfGfUfCfUfCfUfGfGfUfCfCfUfUfAfCfUfUfAeAe (antisense TUGUCUCUGGUCCUUACUUAA; chemistry not fully specified) [ISIS 435394, modified ssRNA targeting PTEN]” it was 18.1 nM.
On the same count and under the same terms, the figure for “P-TdUfGmUfCmUfCmUfGmGfUmCfCfUfUfAfCfUfUfAeAe (antisense TUGUCUCUGGUCCUUACUUAA; 5'-phosphate, chemical modifications, chemistry not fully specified) [ISIS 435399, modified ssRNA targeting PTEN]” is 2 nM; for “P-TeUfGfUfCfUfCfUfGfGfUfCfCfUfUfAfCfUfUfAeAe (antisense TUGUCUCUGGUCCUUACUUAA; sugars from the 5' end e1 f18 e2, 5' {P}, backbone not given here) [ISIS 418031, modified ssRNA targeting PTEN]” it is 3.9 nM; for “P-TefUfGfUfCfUfCfUfGfGfUfCfCfUfUfAfCfUfUfAeAe (antisense TUGUCUCUGGUCCUUACUUAA; sugars from the 5' end [FEt]1 f18 e2, 5' {P}, backbone not given here; further chemistry not fully specified) [ISIS 418032, modified ssRNA targeting PTEN]” it is 2.9 nM.
On the same count and under the same terms, in the case of “P-TefUfGfUfCfUfCfUfGfGfUfCfCfUfUfAfCfUfUfAeAe (antisense {P}-[FEt-T]fUfGfUfCfUfCfUfGfGfUfCfCfU*fU*fA*fC*fU*fU*eA*eA) [ISIS 418033, modified ssRNA targeting PTEN]” it was 11 nM; in that of “P-UeUfGfUfCfUfCfUfGfGfUfCfCfUfUfAfCfUfUfAeAe (antisense UUGUCUCUGGUCCUUACUUAA; sugars from the 5' end e1 f18 e2, 5' {P}, backbone and T or U not given here) [ISIS 418030, modified ssRNA targeting PTEN]”, 8.5 nM.
Consider “P-UfUfGfUfCfUfCfUfGfGfUfCfCfUfUfAfCfUfUf (antisense {P}-fUfUfGfUfCfUfCfUfGfGfUfC*fC*fU*fU*fA*fC*fU*fU) [ISIS 386187, modified ssRNA targeting PTEN]”, for which the EC50 is 0.3 nM with human PTEN (setting [3]) and 15 nM in the data set on human PTEN (single stranded antisense compound, PTEN mRNA, read-out: EC50 (nM) ssRNA).
On to “P-UmUfGmUfCmUfCmUfGmGfUmCfCmUfUmAfCmUfUmAeAe (antisense UUGUCUCUGGUCCUUACUUAA; sugars from the 5' end mfmfmfmfmfmfmfmfmfmee, 5' {P}, backbone not given here) [ISIS 414291, modified ssRNA targeting PTEN]”, for which, in the data set with PTEN (listed as 414291), the IC50 stood at 13 nM.
In the data set with PTEN (listed as 416598), “P-UmUfGmUfCmUfCmUfGmGfUmCfCmUfUmAfCmUfUmAeAe (antisense UUGUCUCUGGUCCUUACUUAA; sugars from the 5' end mfmfmfmfmfmfmfmfmfmee, 5' {P}, backbone not given here) [ISIS 416598, modified ssRNA targeting PTEN]” gave an IC50 of 6.8 nM.
As for “Pz-^meUhUfGmUfCmUfCmUfGmGfUmCfCmUfUmAfCmUfUmAeAe (antisense UUGUCUCUGGUCCUUACUUAA; 5'-difluoromethylenephosphonate, 2'-F/2'-OMe alternating, MOE 3' end, first nucleoside modification undefined, further chemistry not given here) [ISIS 460646, modified ssRNA targeting PTEN, 5′-difluoromethylenephosphonate]”, the 50% effective concentration (EC50) in the data set with human PTEN (setting [3]) is 0.8 nM.
Take “Pz-^meUmUfGmUfCmUfCmUfGmGfUmCfCmUfUmAfCmUfUmAeAe (antisense UUGUCUCUGGUCCUUACUUAA; 5'-difluoromethylenephosphonate, 2'-F/2'-OMe alternating, MOE 3' end, first nucleoside modification undefined, further chemistry not given here) [ISIS 462606, modified ssRNA targeting PTEN, 5′-difluoromethylenephosphonate]”: in the data set with human PTEN (antisense strand duplexed with sense strand ISIS 341401, PTEN mRNA, listed as 462606 (AS), read-out: EC50 (nM) siRNA), the EC50 worked out at 0.4 nM.
“Pz-^meUmUfGmUfCmUfCmUfGmGfUmCfCmUfUmAfCmUfUmAeAe (antisense UUGUCUCUGGUCCUUACUUAA; 5'-difluoromethylenephosphonate, 2'-F/2'-OMe alternating, MOE 3' end, first nucleoside modification undefined, further chemistry not given here) [ISIS 462607, modified ssRNA targeting PTEN, 5′-difluoromethylenephosphonate]”: in the data set with human PTEN (antisense strand duplexed with sense strand ISIS 341401, PTEN mRNA, listed as 462607 (AS), read-out: EC50 (nM) siRNA), the EC50 amounted to 1 nM.
Take “UUGUCUCUGGUCCUUACUU (rUrUrGrUrCrUrCrUrGrGrUrC*rC*rU*rU*rA*rC*rU*rU) [ISIS 359455, unmodified RNA antisense strand targeting PTEN]”: the EC50 in the data set with human PTEN (setting [3]) came to 0.3 nM.
